From ChEMBL document CHEMBL5247596, “SAR studies toward discovery of emvododstat (PTC299), a potent dihydroorotate dehydrogenase (DHODH) inhibitor” (Eur J Med Chem, 2022)

Columns and labels:
MOLM-13 = assay: Cytotoxicity against human MOLM-13 cells assessed as reduction of cell viability incubated for 3 days by CellTiter-Glo assay; format: functional, cell-based; conditions: MOLM-13, 72 h; for CC50: time 3 day
[1] = Metabolic stability in mouse liver microsomes assessed as intrinsic clearance at 1 uM incubated upto 60 mins in presence of NADP by LC-MS analysis; format: ADME, Microsome; conditions: read-out: CLH
HT-1080 [2] = assay: Antitumor activity against human HT-1080 cells xenografted in mouse assessed as tumor growth inhibition at 50 mg/kg, po bid measured for 14 days relative to control; format: functional; conditions: HT-1080, 336 h, time 14 day, read-out: TGI
[3] = AUC([…]) in mouse at 10 mg/kg, po administered via gavage measured upto 24 hrs by LC/MS-MS analysis; format: ADME, organism-based; set-up: dose 10 mg/kg, time < 24 hrs, route po; conditions: in vivo
HT-1080 [4] = assay: Antitumor activity against human HT-1080 cells xenografted in mouse assessed as tumor growth inhibition at 10 mg/kg, po bid measured for 14 days relative to control; format: functional; conditions: HT-1080, 336 h, time 14 day, read-out: TGI
[5] = target: Dihydroorotate dehydrogenase (quinone), mitochondrial (Homo sapiens, UniProt Q02127); assay: Inhibition of DHODH in human HeLa cells assessed as reduction in hypoxia-induced VEGF expression incubated for 48 hrs by ELISA assay; format: cell-based
HT-1080 [6] = assay: Antitumor activity against human HT-1080 cells xenografted in mouse assessed as tumor growth inhibition at 10 mg/kg, po bid measured for 21 days relative to control; format: functional; conditions: HT-1080, 504 h, time 21 day, read-out: TGI
HT-1080 [7] = assay: Antitumor activity against human HT-1080 cells xenografted in mouse assessed as tumor growth inhibition at 2 mg/kg, po bid measured for 21 days relative to control; format: functional; conditions: HT-1080, 504 h, time 21 day, read-out: TGI
[8] = Oral bioavailability in Sprague-Dawley rat at 3 mg/kg by LC-MS/MS analysis; format: ADME, organism-based; conditions: in vivo
[9] = Genotoxicity in Salmonella typhimurium by Ames test; format: toxicity; conditions: salmonella enterica subsp. enterica serovar typhimurium
[10] = Oral bioavailability in Beagle dog at 3 mg/kg by LC-MS/MS analysis; format: ADME, organism-based, Canis lupus familiaris; conditions: in vivo
[11] = Toxicity in po dosed rat bone marrow by micronucleus assay; format: organism-based; conditions: in vivo
[12] = Toxicity in CHO cells assessed as chromosomal aberration; format: cell-based, Cricetulus griseus; conditions: chinese hamster
[13] = target: Voltage-gated inwardly rectifying potassium channel KCNH2 (Homo sapiens, UniProt Q12809); assay: Inhibition of hERG (unknown origin); format: toxicity
Chain of Voltage-gated inwardly rectifying potassium channel KCNH2 (Q12809 whole entry): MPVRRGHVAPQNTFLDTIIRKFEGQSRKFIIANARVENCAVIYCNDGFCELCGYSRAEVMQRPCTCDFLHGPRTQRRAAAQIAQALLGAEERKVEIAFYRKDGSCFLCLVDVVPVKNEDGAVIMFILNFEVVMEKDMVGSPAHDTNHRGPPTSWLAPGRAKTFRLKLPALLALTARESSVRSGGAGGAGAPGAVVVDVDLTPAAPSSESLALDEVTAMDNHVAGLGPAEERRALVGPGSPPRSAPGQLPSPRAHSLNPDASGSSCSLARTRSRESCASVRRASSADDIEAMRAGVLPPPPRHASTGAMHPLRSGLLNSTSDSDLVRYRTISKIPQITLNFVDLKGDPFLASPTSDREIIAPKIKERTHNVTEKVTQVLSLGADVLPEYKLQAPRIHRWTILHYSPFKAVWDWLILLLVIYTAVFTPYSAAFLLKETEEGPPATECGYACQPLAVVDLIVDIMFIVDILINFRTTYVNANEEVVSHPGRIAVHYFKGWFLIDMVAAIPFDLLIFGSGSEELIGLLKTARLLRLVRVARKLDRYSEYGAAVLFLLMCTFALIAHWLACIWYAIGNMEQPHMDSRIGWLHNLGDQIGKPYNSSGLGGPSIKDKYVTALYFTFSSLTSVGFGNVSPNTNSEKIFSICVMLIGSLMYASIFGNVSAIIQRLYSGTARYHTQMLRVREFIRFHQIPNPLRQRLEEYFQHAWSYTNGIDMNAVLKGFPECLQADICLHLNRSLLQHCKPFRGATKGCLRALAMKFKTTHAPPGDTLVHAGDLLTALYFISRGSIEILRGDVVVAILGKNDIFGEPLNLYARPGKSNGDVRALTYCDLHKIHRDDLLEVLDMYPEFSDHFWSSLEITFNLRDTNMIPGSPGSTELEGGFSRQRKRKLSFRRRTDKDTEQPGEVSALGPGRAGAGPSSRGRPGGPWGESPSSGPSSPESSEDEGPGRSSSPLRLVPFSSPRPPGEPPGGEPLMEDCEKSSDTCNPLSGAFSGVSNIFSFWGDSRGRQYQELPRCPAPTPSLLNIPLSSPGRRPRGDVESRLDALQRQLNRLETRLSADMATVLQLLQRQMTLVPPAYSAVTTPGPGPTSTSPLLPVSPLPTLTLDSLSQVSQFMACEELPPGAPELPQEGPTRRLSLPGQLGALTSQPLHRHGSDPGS

Chain of Dihydroorotate dehydrogenase (quinone), mitochondrial (Q02127 whole entry): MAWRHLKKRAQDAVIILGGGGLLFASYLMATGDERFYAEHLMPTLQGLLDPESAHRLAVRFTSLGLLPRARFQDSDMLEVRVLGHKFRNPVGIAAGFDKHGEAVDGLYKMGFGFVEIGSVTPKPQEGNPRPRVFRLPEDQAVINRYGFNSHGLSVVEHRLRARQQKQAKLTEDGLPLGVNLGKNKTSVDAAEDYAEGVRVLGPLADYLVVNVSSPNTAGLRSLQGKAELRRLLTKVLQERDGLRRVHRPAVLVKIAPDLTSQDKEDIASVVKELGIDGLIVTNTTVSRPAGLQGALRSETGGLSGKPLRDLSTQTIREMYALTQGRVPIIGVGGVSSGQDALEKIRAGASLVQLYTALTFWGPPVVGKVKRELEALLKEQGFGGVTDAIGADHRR

Row | SMILES | CC50 (MOLM-13) | further results
1 | COc1ccc(C2NCCc3c2[nH]c2ccccc32)cc1 (stereo not given) | > 30000 nM | –
2 | COc1ccc(C2NCCc3c2[nH]c2ccc(Cl)cc32)cc1 (stereo not given) | 1200 nM | –
3 | CCOC(=O)N1CCc2c([nH]c3ccc(Cl)cc23)C1c1ccc(OC)cc1 (stereo not given) | 25 nM | CLint scaled at 1 µM [1]: 190 mL/min/kg; inhibition in vivo at 50 mg/kg (HT-1080 [2]): 52%; AUC(0-t) at 24 h [3]: 580 ng·h/mL; inhibition in vivo at 10 mg/kg (HT-1080 [4]): 2%
4 | CCOC(=O)N1CCc2c([nH]c3cc(F)ccc23)C1c1ccc(OC)cc1 (stereo not given) | > 1000 nM | –
5 | COc1ccc(C2c3[nH]c4ccc(Cl)cc4c3CCN2C)cc1 (stereo not given) | 337 nM | –
6 | COc1ccc(C2c3[nH]c4ccc(Cl)cc4c3CCN2C(=O)OC2CCCCC2)cc1 (stereo not given) | 41 nM | –
7 | COc1ccc(C2c3[nH]c4ccc(Cl)cc4c3CCN2C(=O)OCCF)cc1 (stereo not given) | 37 nM | CLint scaled at 1 µM [1]: 227 mL/min/kg
8 | COc1ccc(C2c3[nH]c4ccc(Cl)cc4c3CCN2C(=O)Oc2ccccc2Cl)cc1 (stereo not given) | 126 nM | –
9 | COC(=O)N1CCc2c([nH]c3ccc(Cl)cc23)C1c1ccc(OC)cc1 (stereo not given) | 40 nM | CLint scaled at 1 µM [1]: 174 mL/min/kg
10 | COc1ccc(C2c3[nH]c4cc(Cl)ccc4c3CCN2C(=O)Oc2ccc(Cl)cc2)cc1 (stereo not given) | 306 nM | –
11 | COc1ccc(C2c3[nH]c4ccc(C)cc4c3CCN2C(=O)Oc2ccc(Cl)cc2)cc1 (stereo not given) | 62 nM | –
12 | COc1ccc(C2c3[nH]c4ccc(Cl)cc4c3CCN2C(=O)Oc2ccccc2C)cc1 (stereo not given) | 225 nM | –
13 | CCOC(=O)N1CCc2c([nH]c3ccc(Cl)cc23)C1c1cccc(OC)c1 (stereo not given) | 48 nM | –
14 | COc1ccc(C2c3[nH]c4ccc(Cl)cc4c3CCN2C(=O)OC(C)C)cc1 (stereo not given) | 37 nM | –
15 | CCOC(=O)N1CCc2c([nH]c3ccc(Cl)cc23)C1c1ccccc1OC (stereo not given) | 192 nM | –
16 | COc1ccc(C2c3[nH]c4ccc(Cl)cc4c3CCN2C(=O)OC(C)(C)C)cc1 (stereo not given) | 39 nM | –
17 | CCOC(=O)N1CCc2c([nH]c3cccc(F)c23)C1c1ccc(OC)cc1 (stereo not given) | > 1000 nM | –
18 | COc1ccc(C2c3[nH]c4ccc(Cl)cc4c3CCN2C(C)=O)cc1 (stereo not given) | 274 nM | –
19 | COc1ccc(C2c3[nH]c4ccc(Cl)cc4c3CCN2C=O)cc1 (stereo not given) | 325 nM | –
20 | CCOC(=O)N1CCc2c([nH]c3ccc(Cl)cc23)C1c1ccccc1 (stereo not given) | 52 nM | CLint scaled at 1 µM [1]: 92 mL/min/kg
21 | COc1ccc([C@H]2c3[nH]c4ccc(Br)cc4c3C[C@@H]3C(=O)N(C4CCCCC4)C(=S)N23)cc1 | – | EC50 [5]: 3 nM
22 | COc1ccc(C2c3[nH]c4ccc(Cl)cc4c3CCN2Cc2ccccc2)cc1 (stereo not given) | 265 nM | –
23 | CCOC(=O)N1CCc2c([nH]c3ccc(Cl)cc23)C1C1CCCCC1 (stereo not given) | 119 nM | –

Row | SMILES | CC50 (MOLM-13) | further results
24 | COc1ccc([C@@H]2c3[nH]c4ccc(Cl)cc4c3CCN2C(=O)Oc2ccc(Cl)cc2)cc1 | > 1000 nM | –
25 | CCOC(=O)N1CCc2c([nH]c3ccc(Cl)cc23)C1c1cccc(F)c1 (stereo not given) | 53 nM | CLint scaled at 1 µM [1]: 151 mL/min/kg
26 | COc1ccc([C@H]2c3[nH]c4ccc(Cl)cc4c3C[C@@H]3C(=O)N(C4CCCCC4)C(=S)N23)cc1 | – | EC50 [5]: 1 nM
27 | CCOC(=O)N1CCc2c([nH]c3ccc(Cl)cc23)C1c1ccc(Cl)cc1 (stereo not given) | 19 nM | CLint scaled at 1 µM [1]: 221 mL/min/kg; AUC(0-t) at 24 h [3]: 550 ng·h/mL
28 | COc1ccc(C2c3[nH]c4ccc(Cl)cc4c3CCN2S(=O)(=O)c2ccccc2)cc1 (stereo not given) | > 1000 nM | –
29 | CCOC(=O)N1CCc2c([nH]c3ccc(C#N)cc23)C1c1ccc(OC)cc1 (stereo not given) | 284 nM | –
30 | CCOC(=O)N1CCc2c([nH]c3ccc(Cl)cc23)C1C (stereo not given) | > 1000 nM | –
31 | COc1ccc(C2c3[nH]c4ccc(Cl)cc4c3CCN2C(=O)Oc2cccc(C)c2)cc1 (stereo not given) | 77 nM | –
32 | COc1ccc(C2c3[nH]c4ccc(Cl)cc4c3CCN2C(=O)OC2CCC2)cc1 (stereo not given) | 28 nM | –
33 | Brc1ccc2[nH]c3c(c2c1)CCCC3n1cccc1 (stereo not given) | – | EC50 [5]: 13 nM
34 | COc1ccc(C2c3[nH]c4ccc(Cl)cc4c3CCN2C(=O)Oc2cccnc2)cc1 (stereo not given) | 117 nM | –
35 | COc1ccc(C2c3[nH]c4ccc(Cl)cc4c3CCN2C(=O)Oc2ccc(C)cc2)cc1 (stereo not given) | 31 nM | CLint scaled at 1 µM [1]: < 5 mL/min/kg; AUC(0-t) at 24 h [3]: 2200 ng·h/mL
36 | CCOC(=O)N1CCc2c([nH]c3ccc(OC)cc23)C1c1ccc(OC)cc1 (stereo not given) | 215 nM | –
37 | CCOC(=O)N1CCc2c([nH]c3ccccc23)C1c1ccc(OC)cc1 (stereo not given) | > 1000 nM | –
38 | COc1ccc(C2c3[nH]c4ccc(Cl)cc4c3CCN2C(=O)Oc2cccc(Cl)c2)cc1 (stereo not given) | 13 nM | –
39 | COc1ccc(C2c3[nH]c4cccc(Cl)c4c3CCN2C(=O)Oc2ccc(Cl)cc2)cc1 (stereo not given) | 389 nM | –
40 | CCOC(=O)N1CCc2c([nH]c3ccc(Cl)cc23)C1c1ccccc1Cl (stereo not given) | 384 nM | –
41 | CCOC(=O)N1CCc2c([nH]c3ccc(F)cc23)C1c1ccc(OC)cc1 (stereo not given) | 433 nM | –
42 | COc1ccc(C2NCCc3c2[nH]c2ccc(Br)cc32)cc1 (stereo not given) | 920 nM | –
43 | CCOC(=O)N1CCc2c([nH]c3ccc(Cl)cc23)C1Cc1ccccc1 (stereo not given) | > 1000 nM | –
44 | CCCOC(=O)N1CCc2c([nH]c3ccc(Cl)cc23)C1c1ccc(OC)cc1 (stereo not given) | 23 nM | –
45 | COc1ccc(C2c3[nH]c4ccc(Cl)cc4c3CCN2C(=O)Oc2cccc(F)c2)cc1 (stereo not given) | 27 nM | –
46 | CCOC(=O)N1CCc2c([nH]c3ccc(Cl)cc23)C1c1ccccc1F (stereo not given) | 36 nM | –

Row | SMILES | CC50 (MOLM-13) | further results
47 | COc1ccc(OC(=O)N2CCc3c([nH]c4ccc(Cl)cc34)C2c2ccc(OC)cc2)cc1 (stereo not given) | 73 nM | –
48 | COc1ccc(C2c3c(c4cc(Cl)ccc4n3C)CCN2C(=O)Oc2ccc(Cl)cc2)cc1 (stereo not given) | – | EC50 (MOLM-13): > 1000 nM
49 | COc1ccc(C2c3[nH]c4ccc(Cl)cc4c3CCN2C(=O)Oc2ccc(Cl)cc2)cc1 (stereo not given) | 12 nM | CLint scaled at 1 µM [1]: < 5 mL/min/kg; inhibition in vivo at 10 mg/kg (HT-1080 [6]): 82%; AUC(0-t) at 24 h [3]: 8600 ng·h/mL; inhibition in vivo at 2 mg/kg (HT-1080 [7]): 63%
50 | COCCOC(=O)N1CCc2c([nH]c3ccc(Cl)cc23)C1c1ccc(OC)cc1 (stereo not given) | 81 nM | CLint scaled at 1 µM [1]: 365 mL/min/kg
51 | CCNC(=S)N1CCc2c([nH]c3ccc(Cl)cc23)C1c1ccc(OC)cc1 (stereo not given) | 477 nM | –
52 | CCOC(=O)N1CCc2c([nH]c3ccc(Br)cc23)C1c1ccc(OC)cc1 (stereo not given) | 11 nM | –
53 | COc1ccc(C2c3[nH]c4ccc(Cl)cc4c3CCN2C(=O)OC2CCCC2)cc1 (stereo not given) | 36 nM | –
54 | CCOC(=O)N1CCc2c([nH]c3c(F)cccc23)C1c1ccc(OC)cc1 (stereo not given) | > 1000 nM | –
55 | CCOC(=O)N1CCc2c([nH]c3ccc(Cl)cc23)C1c1cccc(Cl)c1 (stereo not given) | 34 nM | CLint scaled at 1 µM [1]: 143 mL/min/kg
56 | CCOC(=O)N1CCc2c([nH]c3c(C)cccc23)C1c1ccc(OC)cc1 (stereo not given) | > 1000 nM | –
57 | CCN(CC)C(=O)N1CCc2c([nH]c3ccc(Cl)cc23)C1c1ccc(OC)cc1 (stereo not given) | > 1000 nM | –
58 | COc1ccc(C2c3[nH]c4ccc(Cl)cc4c3CCN2C(=O)OC2CC2)cc1 (stereo not given) | 37 nM | –
59 | COc1ccc(C2c3[nH]c4ccc(Cl)cc4c3CCN2c2ccccc2)cc1 (stereo not given) | 133 nM | –
60 | CCNC(=O)N1CCc2c([nH]c3ccc(Cl)cc23)C1c1ccc(OC)cc1 (stereo not given) | 929 nM | –
61 | COc1ccc(C2c3[nH]c4ccc(Cl)cc4c3CCN2C(=O)Oc2ccc(F)cc2)cc1 (stereo not given) | 26 nM | –
62 | CCN1CCc2c([nH]c3ccc(Cl)cc23)C1c1ccc(OC)cc1 (stereo not given) | 278 nM | –
63 | COc1ccc([C@H]2c3[nH]c4ccccc4c3C[C@@H]3C(=O)N(C4CCCCC4)C(=S)N23)cc1 | – | EC50 [5]: 680 nM
64 | CCOC(=O)N1CCc2c([nH]c3ccc(Cl)cc23)C1c1ccc(F)cc1 (stereo not given) | 36 nM | AUC(0-t) at 24 h [3]: 200 ng·h/mL
65 | COc1ccc(C2c3[nH]c4ccc(Cl)cc4c3CCN2C(=O)Oc2cncnc2)cc1 (stereo not given) | 74 nM | –
66 | COc1ccc(C2c3[nH]c4ccc(Cl)cc4c3CCN2C(=O)Oc2ccccc2F)cc1 (stereo not given) | 59 nM | –
67 | O=C(Oc1ccc(Cl)cc1)N1CCn2c(cc3ccc(Cl)cc32)C1c1ccccc1 (stereo not given) | – | EC50 (MOLM-13): > 1000 nM
68 | COc1ccc(C2c3[nH]c4ccc(Cl)cc4c3CCN2C(=O)Oc2ccccc2)cc1 (stereo not given) | 34 nM | CLint scaled at 1 µM [1]: 22 mL/min/kg
69 | COc1ccc([C@H]2c3[nH]c4ccc(Cl)cc4c3CCN2C(=O)Oc2ccc(Cl)cc2)cc1 [EMVODODSTAT] | 6 nM | bioavailability [8]: 119%; Activity [9]: Non-Toxic; bioavailability [10]: 8%; Activity [11]: Non-Toxic; Activity [12]: Non-Toxic; inhibition (INH) [13]: Not Active
